The values that follow come from patent US20240199611A1, “ANTIBACTERIAL COMPOUNDS” (JANSSEN SCIENCES IRELAND UNLIMITED COMPANY, priority 2021, published 2024).

One may read the melting point as the temperature of the solid-liquid transition.

Test system in one data set: not given
Assay: not given
Settings: not given
Consider `CCc1nc2ccc(OC)cn2c1C(=O)NCc1ccc(N2CCN(S(=O)(=O)C(F)(F)F)C=N2)cc1` [Compound 42], for which the melting point was 147.57 °C.
The same measure, in the same setting: as for `CCc1nc2ccc(Cl)cn2c1C(=O)NCc1ccc(N2CCN(S(=O)(=O)CCOC)C=N2)cc1` [Compound 19], the figure is 196.34 °C; as for `CCc1nc2cc(OC)ccn2c1C(=O)NCc1ccc(N2CCN(S(=O)(=O)C(F)(F)F)C=N2)cc1` [Compound 51], 185.08 °C.
Same read-out and setting: as for `CCc1nc2ccc(Cl)cn2c1C(=O)NCc1ccc(N2CCN(S(=O)(=O)C(F)(F)F)C(C)=N2)cc1` [Compound 21], the figure is 157.49 °C; as for `CCc1nc2ccc(Cl)cn2c1C(=O)NCc1ccc(N2CCNC=N2)cc1` [Compound 56], 236.36 °C; as for `CCc1nc2ccc(Cl)cn2c1C(=O)NCc1ccc(N2CCN(C)C=N2)cc1` [Compound 15], 206.66 °C.
Still for that read-out and setting: with `CCc1nc2ncc(Cl)cn2c1C(=O)NCc1ccc(N2CCN(C(C)=O)C=N2)cc1` [Compound 24] the figure was 258.01 °C; with `CCc1nc2ccc(C#N)cn2c1C(=O)NCc1ccc(N2CCN(S(=O)(=O)C(F)(F)F)C=N2)cc1` [Compound 72], 216.25 °C.
Turning to `CCc1nc2cc(Cl)c(OC)cn2c1C(=O)NCc1ccc(N2CCN(S(=O)(=O)C(F)(F)F)C=N2)cc1` [Compound 67], the melting point is 206.99 °C.
Still for that read-out and setting: as for `CCc1nc2ccc(Cl)cn2c1C(=O)NCc1ccc(N2CCN(S(=O)(=O)C(F)(F)F)C(CCOC)=N2)cc1` [Compound 55], the figure is 193.51 °C; as for `CCc1nc2cc(OC)ccn2c1C(=O)NCc1ccc(N2CCN(S(=O)(=O)C(F)(F)F)C(OC)=N2)cc1` [Compound 52], 164.28 °C; as for `CCc1nc2ccc(Cl)cn2c1C(=O)NCc1ccc(N2CCN(c3nccs3)C=N2)cc1` [Compound 76], 232.4 °C.
Same read-out and setting: with `O=C(NCc1ccc(N2CCN(S(=O)(=O)C(F)(F)F)C=N2)cc1)c1c(C2CC2)nc2ncc(Cl)cn12` [Compound 7] the figure was 208.41 °C.
The same measure, in the same setting: as for `CCc1nc2ncc(Cl)cn2c1C(=O)NCc1ccc(N2CCN(S(=O)(=O)C(F)(F)F)C(OC)=N2)cc1` [Compound 27], the figure is 174.88 °C; as for `COc1ccn2nc(C)c(C(=O)NCc3ccc(N4CCN(S(=O)(=O)C(F)(F)F)C=N4)cc3)c2c1` [Compound 14], 192.27 °C; as for `CCc1nc2ncc(Cl)cn2c1C(=O)NCc1ccc(N2CCN(S(=O)(=O)CC(C)C)C=N2)cc1` [Compound 23], 207.21 °C.
On to `CCc1nc2ccc(CCCOC)cn2c1C(=O)NCc1ccc(N2CCN(S(=O)(=O)C(F)(F)F)C=N2)cc1` [Compound 63], for which the melting point was determined as 159.95 °C.
Still for that read-out and setting: with `CCc1nc2ccc(Cl)cn2c1C(=O)NCc1ccc(N2CCN(Cc3nc(C(F)(F)F)cs3)C=N2)cc1` [Compound 69] the figure was 163.46 °C; with `CCc1nc2ncc(COC)cn2c1C(=O)NCc1ccc(N2CCN(S(=O)(=O)C(F)(F)F)C=N2)cc1` [Compound 33], 225.92 °C; with `CCc1nc2cc(OC)ccn2c1C(=O)NCc1ccc(N2CCN(S(=O)(=O)C(F)(F)F)C(OC)=N2)c(F)c1` [Compound 75], 135.16 °C.
On the same count and under the same terms, with `CCc1nc2cc(OC)c(Cl)cn2c1C(=O)NCc1ccc(N2CCN(S(=O)(=O)C(F)(F)F)C(OC)=N2)c(F)c1` [Compound 46] the figure was 176.82 °C; with `CCc1nc2ccc(N3CCCC3)cn2c1C(=O)NCc1ccc(N2CCN(S(=O)(=O)C(F)(F)F)C=N2)cc1` [Compound 65], 228.15 °C; with `CCc1nc2ccc(Cl)cn2c1C(=O)NCc1cc(F)c(N2CCN(S(=O)(=O)C(F)(F)F)C=N2)c(F)c1` [Compound 35], 152.93 °C.
The same measure, in the same setting: as for `CCc1nc2ncc(C(=O)NC)cn2c1C(=O)NCc1ccc(N2CCN(S(=O)(=O)C(F)(F)F)C=N2)cc1` [Compound 61], the figure is 193.44 °C; as for `CCc1nc2cc(Cl)c(OC)cn2c1C(=O)NCc1ccc(N2CCN(S(=O)(=O)C(F)(F)F)C(OC)=N2)cc1` [Compound 45], 155.29 °C.
Consider `CCc1nc2ccc(Cl)cn2c1C(=O)NCc1ccc(N2CCN(C=O)C=N2)cc1` [Compound 38], for which the melting point stood at 255.93 °C.
`CCc1nc2n(c1C(=O)NCc1ccc(N3CCN(S(=O)(=O)C(F)(F)F)C=N3)cc1)CCCC2` [Compound 3] yielded a melting point of 189.22 °C.
In turn, `CCc1nc2ccc(Cl)cn2c1C(=O)NCc1ccc(N2CCN(C(=O)C(F)(F)F)C=N2)cc1` [Compound 66] showed a melting point of 211.3 °C.
On the same count and under the same terms, with `CCc1nc2cc(OC)c(Cl)cn2c1C(=O)NCc1ccc(N2CCN(S(=O)(=O)C(F)(F)F)C=N2)cc1` [Compound 64] the figure was 193.79 °C.
On the same count and under the same terms, as for `CCc1nc2ccc(Cl)cn2c1C(=O)NCc1ccc(N2CCN(S(=O)(=O)C(F)(F)F)C=N2)cc1OC` [Compound 22], the figure is 175.12 °C.
The compound `CCc1nc2c(Cl)c(OC)ccn2c1C(=O)NCc1ccc(N2CCN(S(=O)(=O)C(F)(F)F)C=N2)cc1` [Compound 39] came in with a melting point of 211.19 °C.
In turn, `CCc1nc2n(c1C(=O)NCc1ccc(N3CCNC=N3)cc1)CCCC2` [Compound 57] had a melting point of 211.47 °C.
Still for that read-out and setting: with `CCc1nc2ncc(F)cn2c1C(=O)NCc1ccc(N2CCN(S(=O)(=O)C(F)(F)F)C=N2)cc1` [Compound 10] the figure was 171.42 °C; with `CCC1=NN(c2ccc(CNC(=O)c3c(CC)nc4ccc(Cl)cn34)cc2)CCN1S(=O)(=O)C(F)(F)F` [Compound 2], 178.31 °C; with `CCc1nc2ccc(Cl)cn2c1C(=O)NCc1ccc(N2CCN(S(=O)(=O)CC(C)C)C=N2)cc1` [Compound 17], 196.82 °C.
As for `CCc1nc2ccc(OC)cn2c1C(=O)NCc1ccc(N2CCN(S(=O)(=O)C(F)(F)F)C(OC)=N2)c(F)c1` [Compound 48], the melting point came to 74.6 °C.
Same read-out and setting: as for `CCc1nc2cccc(Cl)n2c1C(=O)NCc1ccc(N2CCN(S(=O)(=O)C(F)(F)F)C(OC)=N2)cc1` [Compound 70], the figure is 138.71 °C; as for `CCc1nc2ccc(Cl)cn2c1C(=O)NCc1ccc(N2CCN(S(=O)(=O)C(F)(F)F)C(OC)=N2)c(F)c1` [Compound 37], 193.36 °C.
For the compound `CCc1nc2ccc(Cl)cn2c1C(=O)NCc1ccc(N2CCN(C(C)=O)C=N2)cc1` [Compound 18], the melting point is 245.36 °C.
Same read-out and setting: with `CCc1nc2ccc(Cl)cn2c1C(=O)NCc1ccc(N2CCN(C)C(C)=N2)cc1` [Compound 59] the figure was 202.94 °C.

For the next data set, the system named is Mycobacterium tuberculosis strain EH4.0 expressing green-fluorescent protein (GFP). Description: microbe, parasite or virus in culture. Format: cell-based. Particulars: Test 1 (and/or Test 2), read-out: pIC50 (converted).
`CCc1nc2sc(Cl)cn2c1C(=O)NCc1ccc(N2CCN(S(=O)(=O)C(F)(F)F)C=N2)c(F)c1` [Compound 135]: the IC50 is 7.24 nM.
Still for that read-out and setting: as for `CCc1nc2ccc(C)cn2c1C(=O)NCc1ccc(N2CCN(S(=O)(=O)C(F)(F)F)C(C3CCC3)=N2)cc1` [Compound 237], the figure is 5.75 nM.
For the compound `CCc1nc2ccc(F)cn2c1C(=O)NCc1ccc(N2CCN(S(=O)(=O)C(F)(F)F)C(C3CC3)=N2)cc1` [Compound 227], the IC50 was 11.5 nM.

The same data set, now with this note: read-out: pIC50 (converted).
Turning to `CCc1nc2c(C)cc(C)cn2c1C(=O)NCc1ccc(N2CCN(S(=O)(=O)C(F)(F)F)C=N2)c(F)c1` [Compound 95], the IC50 was 38 nM.
